The values that follow come from PubChem BioAssay (NCI).

“And” between values parts separate entries of the source, which are not always exact repeats. Equal values may be shown once.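 Cells were grown in 96-well plates and exposed to each compound for 48 hours at five concentrations; endpoints were interpolated linearly between bracketing concentrations, or set to the highest concentration if not reached. Here, GI50 denotes the concentration required for 50% inhibition of growth. TGI marks complete inhibition of growth.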

Among the test systems are SW-620 colon; RXF 393 renal; OVCAR-4 ovarian; HOP-62 NSCLC; SNB-19 CNS; SK-MEL-28 melanoma; COLO 205 colon; RPMI-8226 leukemia; CAKI-1 renal.
What all share (assay): DTP human tumour cell line panel, 48 h

What is called TGI is the concentration at which net growth stops. Low values mean greater sensitivity of the cells, high ones lower sensitivity of the cells. As a reminder, the GI50 is the concentration that inhibits growth by half.

Regarding `CCCCCCCCCCCCCB(O)O`, the total growth inhibition concentration (TGI) in the experiment on SW-620 colon was more than 100 µM; with RXF 393 renal, > 100 µM and 73.7 µM; in the experiment with OVCAR-4 ovarian, more than 100 µM; in the experiment with HOP-62 NSCLC, more than 100 µM; with SNB-19 CNS, more than 100 µM; with SK-MEL-28 melanoma, more than 100 µM. The concentration for total growth inhibition (TGI) with COLO 205 colon was more than 100 µM. The GI50 in the experiment on RXF 393 renal was > 100 µM and 29.5 µM; in the experiment with OVCAR-4 ovarian, > 100 µM and 49.3 µM.
Regarding `CCOCc1cc(=O)c2c(OC)cc3c(c2o1)CCC(C)(C)O3`, the total growth inhibition concentration (TGI) in the experiment on SW-620 colon, in the experiment on RXF 393 renal, in the experiment on OVCAR-4 ovarian, in the experiment on HOP-62 NSCLC and in the experiment with SK-MEL-28 melanoma was more than 100 µM each time.
As for `c1ccc2c(NCCCCCCNc3cccc4ccccc34)cccc2c1`, the total growth inhibition concentration (TGI) with SW-620 colon, with RPMI-8226 leukemia, with OVCAR-4 ovarian, in the experiment with CAKI-1 renal, in the experiment on HOP-62 NSCLC and in the experiment on SNB-19 CNS was more than 100 µM each time. Also, the concentration for total growth inhibition (TGI) in the experiment on SK-MEL-28 melanoma and in the experiment with COLO 205 colon was more than 100 µM in each case.
`CCCCN(CCCC)CCCn1cnc2ncccc2c1=O`: the concentration for total growth inhibition (TGI) in the experiment on SW-620 colon, with RXF 393 renal, in the experiment with OVCAR-4 ovarian, in the experiment on CAKI-1 renal, with HOP-62 NSCLC and in the experiment on SNB-19 CNS was more than 100 µM in each case. Besides, the TGI with SK-MEL-28 melanoma and in the experiment with COLO 205 colon was more than 100 µM each time.
On to `Cn1cnc([N+](=O)[O-])c1Sc1nccc(=O)[nH]1`, for which the TGI in the experiment with SW-620 colon, with RPMI-8226 leukemia, in the experiment with OVCAR-4 ovarian, in the experiment on CAKI-1 renal, in the experiment on HOP-62 NSCLC and in the experiment on SNB-19 CNS was more than 100 µM in each case. Moreover, the TGI in the experiment with SK-MEL-28 melanoma and in the experiment on COLO 205 colon was more than 100 µM each time.
Consider `CCOC(=O)C1(Br)S(=O)(=O)OCCOS1(=O)=O`, for which the TGI in the experiment on SW-620 colon, in the experiment on RXF 393 renal, with RPMI-8226 leukemia, in the experiment on OVCAR-4 ovarian, with HOP-62 NSCLC and with SNB-19 CNS was more than 100 µM each time. In addition, the concentration for total growth inhibition (TGI) with SK-MEL-28 melanoma and with COLO 205 colon was more than 100 µM in each case.
Consider `CC(=O)O[C@H]1CC2C=CC3C(CCC31)O2` (some centres undefined), for which the TGI with SW-620 colon, in the experiment with RXF 393 renal, in the experiment with OVCAR-4 ovarian, in the experiment on CAKI-1 renal, with HOP-62 NSCLC and in the experiment on SNB-19 CNS was more than 100 µM in each case. Further, the TGI with SK-MEL-28 melanoma and in the experiment on COLO 205 colon was more than 100 µM each time.
`COC(=O)/C(=N\NC(N)=O)C(C(=O)C=C(C)C)C(=O)C(=O)Nc1ccc(Cl)c(Cl)c1` (centres undefined): the concentration for total growth inhibition (TGI) in the experiment on SW-620 colon, in the experiment with RXF 393 renal, in the experiment with OVCAR-4 ovarian, in the experiment with CAKI-1 renal, in the experiment with HOP-62 NSCLC and with SNB-19 CNS was more than 100 µM in each case. The concentration for total growth inhibition (TGI) in the experiment with SK-MEL-28 melanoma and in the experiment with COLO 205 colon was more than 100 µM each time.
In the case of `COc1ccc2nc(NC(=O)C(=O)NNC(=O)c3ccncc3)sc2c1`, the concentration for total growth inhibition (TGI) in the experiment with SW-620 colon, in the experiment with RXF 393 renal, in the experiment with OVCAR-4 ovarian, in the experiment with CAKI-1 renal, with HOP-62 NSCLC and in the experiment on SNB-19 CNS was more than 100 µM each time. The total growth inhibition concentration (TGI) in the experiment on SK-MEL-28 melanoma and in the experiment with COLO 205 colon was more than 100 µM each time.
For the molecule `CCN(CC)CCNc1ccc2nc(C)n3c4ccc(O)cc4c(=O)c1c23`, the TGI in the experiment on SW-620 colon was 1.98 µM; in the experiment with RPMI-8226 leukemia, 6.18 µM; in the experiment on OVCAR-4 ovarian, 3.87 µM; in the experiment on CAKI-1 renal it was 3.6 µM; in the experiment on HOP-62 NSCLC, 18.8 µM; in the experiment with SNB-19 CNS, 3.26 µM. Moreover, the TGI in the experiment with SK-MEL-28 melanoma stood at 11.3 µM.
As for `CC1CC[P+](c2ccccc2)(c2ccccc2)CC1`, the total growth inhibition concentration (TGI) in the experiment with SW-620 colon, with RXF 393 renal, in the experiment with RPMI-8226 leukemia, with HOP-62 NSCLC, in the experiment with SNB-19 CNS and in the experiment with SK-MEL-28 melanoma was more than 100 µM in each case. In the experiment on COLO 205 colon, this molecule displayed a total growth inhibition concentration (TGI) of more than 100 µM.
`C1C[OH+]CC[OH+]CCNCC[OH+]CC[OH+]CCN1.Cl.[Cl-].[Pt+4]`: the GI50 with SW-620 colon is more than 100 µM; in the experiment on RXF 393 renal, 1.66 µM; in the experiment with RPMI-8226 leukemia, more than 100 µM; in the experiment on CAKI-1 renal, more than 100 µM; in the experiment with SNB-19 CNS, more than 100 µM; with SK-MEL-28 melanoma, more than 100 µM. Further, the GI50 in the experiment on COLO 205 colon was more than 100 µM. Further, the TGI was more than 100 µM in the experiment with SW-620 colon; 4.13 µM with RXF 393 renal; more than 100 µM with RPMI-8226 leukemia; more than 100 µM in the experiment on CAKI-1 renal; more than 100 µM in the experiment on SNB-19 CNS; more than 100 µM in the experiment on SK-MEL-28 melanoma. For the same molecule, the concentration for total growth inhibition (TGI) with COLO 205 colon is more than 100 µM.
As to `CCOC(=O)C(=O)Nc1ccccc1C(C)C`, the TGI in the experiment on SW-620 colon, in the experiment with RPMI-8226 leukemia, with OVCAR-4 ovarian, in the experiment with CAKI-1 renal, with HOP-62 NSCLC and with SNB-19 CNS was more than 100 µM in each case. The TGI with SK-MEL-28 melanoma and with COLO 205 colon was more than 100 µM each time.
`CCOC1CC2OC(=O)C1C=C2C(=O)OC` (centres undefined): the total growth inhibition concentration (TGI) was 61.1 µM in the experiment on SW-620 colon; 53.9 µM with RPMI-8226 leukemia; 57.4 µM with OVCAR-4 ovarian; 40 µM with CAKI-1 renal; more than 100 µM in the experiment with HOP-62 NSCLC; more than 100 µM in the experiment with SNB-19 CNS. Moreover, the TGI with SK-MEL-28 melanoma came out at 62.8 µM; with COLO 205 colon, 37.2 µM.
